Data: ChEMBL document CHEMBL4602653, “Neuraminidase-triggered activation of prodrug-type substrate of 4-nitroaniline” (Bioorg Med Chem Lett, 2020)

Assays:
Type in all cases: ADME
Conditions in all cases: isolated protein, 6000 µM
[1] = Drug metabolism assessed as Clostridium perfringens neuraminidase-mediated drug decomposition resulting in formation of beta-H3-(equitorial)-N-acetyl-neuraminic acid at 2.21 ppm at 6 mM measured over 10 hrs by 1H-NMR analysis
[2] = Drug metabolism assessed as Clostridium perfringens neuraminidase-mediated formation of para-quinone methide by measuring 4-hydroxy benzyl alcohol formation at 6.90 to 7.29 ppm at 6 mM measured after 10 hrs by 1H-NMR analysis
[3] = Drug metabolism assessed as Clostridium perfringens neuraminidase-mediated drug decomposition resulting in formation of alpha-H3-(axial)-N-acetyl-neuraminic acid at 1.62 ppm at 6 mM measured over 10 hrs by 1H-NMR analysis
[4] = Drug metabolism assessed as Clostridium perfringens neuraminidase-mediated drug decomposition resulting in formation of alpha-H3-(axial)-N-acetyl-neuraminic acid at 1.83 ppm at 6 mM measured over 10 hrs by 1H-NMR analysis
[5] = Drug metabolism assessed as Clostridium perfringens neuraminidase-mediated formation of free N-acetyl-neuraminic acid at 6 mM measured after 75 hrs by 1H-NMR analysis
[6] = Drug metabolism assessed as Clostridium perfringens neuraminidase-mediated drug decomposition by measuring ratio of alpha-H3-(equitorial)-N-acetyl-neuraminic acid to beta-H3-(equitorial)-N-acetyl-neuraminic acid at 6 mM measured over 10 hrs by 1H-NMR analysis
[7] = Drug metabolism assessed as Clostridium perfringens neuraminidase-mediated drug decomposition resulting in formation of alpha-H3-(equitorial)-N-acetyl-neuraminic acid at 2.74 ppm at 6 mM measured over 10 hrs by 1H-NMR analysis
[8] = Drug metabolism assessed as Clostridium perfringens neuraminidase-mediated drug decomposition by measuring ratio of alpha-H3-(axial)-N-acetyl-neuraminic acid to beta-H3-(axial)-N-acetyl-neuraminic acid at 6 mM measured over 10 hrs by 1H-NMR analysis

CC(=O)N[C@H]1[C@H]([C@H](O)[C@H](O)CO)OC(Oc2ccc(COC(=O)Nc3ccc([N+](=O)[O-])cc3)cc2)(C(=O)O)C[C@@H]1O (stereo partly drawn)
Drug metabolism [1]: Metabolite_Detected | Drug metabolism [2]: Metabolite_Detected | Drug metabolism [3]: Metabolite_Detected | Drug metabolism [4]: Metabolite_Detected | Drug metabolism [5]: Metabolite_Detected | Ratio [6]: 7.6 | Drug metabolism [7]: Metabolite_Detected | Ratio [8]: 92.4
